Each structure is given as a SMILES string. “And” between values parts separate entries of the source, which are not always exact repeats. Equal entries are not always repeated.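 Values below derive from 48-hour exposures of cells grown in 96-well plates, with endpoints linearly interpolated between the two concentrations bracketing the appropriate inhibition level. GI50 is the concentration that inhibits growth by half. Definition used: TGI = concentration required for complete inhibition of growth.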

One test has as its system HCT-116 colon. The test can be described thus: growth of human tumour cells (NCI), 48 h.
Compound `N#CC(C#N)SCc1ccccc1` yielded a TGI of 75.5 µM.
In the case of `Cc1cc(N(CCNc2ccnc3cc(Cl)ccc23)Cc2ccc3c(c2)OCO3)nc(N2CCN(C)CC2)n1`, the GI50 is 1.41 µM and the TGI is 4.7 µM.

Another test concerns MDA-MB-231 breast. Nature of the test: growth of human tumour cells (NCI), 48 h.
For the compound `O=c1oc2ccccc2c(O)c1C=NC(=S)c1ccncc1`, the TGI is greater than 100 µM.
For the compound `Cc1ccc(C(=O)Cc2nc3c([nH]c2=O)c(C)nn3-c2ccccc2)c(C)c1`, the TGI was greater than 10 µM.
The same measure, in the same setting: then `O=C(CC(C(=O)c1cccs1)c1ccc2c(c1)OCO2)c1ccc(Br)cc1` (stereo unspecified), with greater than 100 µM; and `Nc1c(C(=O)Nc2ccc([As](=O)(O)O)cc2)cnc2nnnn12`, with greater than 100 µM.
Turning to `Cc1cc(N(CCNc2ccnc3cc(Cl)ccc23)Cc2ccc3c(c2)OCO3)nc(N2CCN(C)CC2)n1`, the GI50 was 1.77 µM and the TGI is 4.32 µM.

Another test has as its system SW-620 colon. The test can be described thus: growth of human tumour cells (NCI), 48 h.
Take `O=C1c2ccccc2N2OC3(N4CCCC4)CCCC3C12c1ccccc1` (stereo unspecified): the TGI was greater than 100 µM.
`COc1ccc(C2C(Cl)C(=O)N2n2cnc3ccccc3c2=O)cc1OC` (stereo unspecified): the TGI is greater than 100 µM.
Still for that read-out and setting: then `Nc1nc2c(ncn2Cc2ccccc2CCO)c(=O)[nH]1`, with greater than 100 µM; and `CCC1(Br)C(=O)NC(=O)N(C2CC(O)C(CO)O2)C1N=[N+]=[N-]` (stereo unspecified), with greater than 100 µM; and `O=c1oc2ccccc2c(O)c1C=NC(=S)c1ccncc1`, with greater than 100 µM.
The compound `O=[N+]([O-])c1ccc(N=Nc2c(O)[nH]c3ccc([N+](=O)[O-])cc23)cc1` registered a TGI of 29.5 µM.
In turn, `CC12CC3(C)CC(C)(C1)CC(N=[N+]=[N-])(C2)C3` showed a TGI greater than 100 µM.
On the same count and under the same terms, as for `N=C(N)SCc1cn2ccccc2n1`, the figure is greater than 100 µM.
For `Clc1ccc([O][In]([O]c2ccc(Cl)cn2)[O]c2ccc(Cl)cn2)nc1`, the GI50 is greater than 100 µM and the TGI was greater than 100 µM.
On to `Fc1cccc(Cl)c1C1SCc2nc3ccccc3n21` (stereo unspecified), for which the TGI was greater than 100 µM.
On to `COc1cc2nncc(Sc3cnnc4ccccc34)c2cc1OC`, for which the TGI was 41.3 µM.
As to `COC(=O)C1=CCON(c2ccccc2)C1c1ccccc1` (stereo unspecified), the TGI was greater than 100 µM.
As for `CC(=O)N(CCN)CCN`, the TGI is greater than 10 µM.
The same measure, in the same setting: then `Cc1cc(O)c2c(c1)C(O)(c1ccc3c(c1O)C(=O)c1c(O)cc(C)cc1C3(O)C1OC(CO)C(O)C(O)C1O)c1cccc(O)c1C2=O` (stereo unspecified), with 34 µM; and `COC(=O)c1nc(NN)[nH]c(=O)c1CCCCCc1c(C(=O)OC)[nH]c(NN)cc1=O`, with greater than 100 µM; and `CC1(C)C(=O)C(O)=CC2C1=CCC1C2(C)C(=O)CC2(C)C(C(C)(O)C(=O)CC(O)C(C)(C)O)C(O)CC12C` (stereo unspecified), with greater than 50.7 µM.
The same measure, in the same setting: then `CCc1ccccc1NC(=O)C(=O)C(C(=O)c1ccc(OC)cc1)c1ccc(OC)cc1` (stereo unspecified), with greater than 100 µM.
As to `Cc1ccc(C(=O)Cc2nc3c([nH]c2=O)c(C)nn3-c2ccccc2)c(C)c1`, the TGI was greater than 10 µM.
On the same count and under the same terms, as for `C/C(=N/N(C=O)C[n+]1ccccc1)C(CN(CC(C)C)CC(C)C)C(=O)Nc1ccc(C)cc1C` (stereo unspecified), the figure is greater than 100 µM.
With `COc1cc(C2c3cc4c(cc3[C@@H](Nc3ccc(N(C)C)cc3)[C@H]3COC(=O)C23)OCO4)cc(OC)c1O` (stereo partly specified), the GI50 was 1.92 µM; the TGI is 14 µM and 16.5 µM.
In the case of `O=c1nc(-c2ccccc2)c2c3c(cccn13)CCC2`, the TGI is greater than 100 µM.
On the same count and under the same terms, then `COc1ccc([C@H]2CC(=O)N3CCCC3N2)cc1` (stereo partly specified), with greater than 100 µM; and `O=C(c1ccccc1)c1c(CC(O)c2cccnc2)n(C(=O)c2ccccc2)c2ccccc12` (stereo unspecified), with 74.9 µM; and `C=C(C)C1CC2C(C)=C(OC(C)=O)C1n1c(=O)c3cc4ccccc4cc3c(=O)n12` (stereo unspecified), with greater than 100 µM.
The same measure, in the same setting: as for `O=C(CC(C(=O)c1cccs1)c1ccc2c(c1)OCO2)c1ccc(Br)cc1` (stereo unspecified), the figure is greater than 100 µM; as for `O=C(CCc1nc(=S)[nH][nH]1)NC12CC3CC(CC(C3)C1)C2`, greater than 100 µM.
`CSc1nc2c(c(O)c(C)c(=O)n2C2OC(COC(C)=O)C(OC(C)=O)C(OC(C)=O)C2OC(C)=O)c(=O)n1C` (stereo unspecified) had a TGI greater than 100 µM.
With `Cc1nc2c(n1CC(C)(C)C)C(=O)c1ccccc1C2=O`, the TGI was greater than 100 µM.
Still for that read-out and setting: as for `COc1ccc(C(C2=C(C)C(=O)c3ccccc3C2=O)c2ccc(C(C)C)cc(=O)c2O)cc1` (stereo unspecified), the figure is greater than 100 µM.
The same measure, in the same setting: as for `CC(C)N(C(=O)C12C3C4C1C1C2C3C41C(O)C(C)(C)C)C(C)C` (stereo unspecified), the figure is greater than 50 µM; as for `Nc1c(C(=O)Nc2ccc([As](=O)(O)O)cc2)cnc2nnnn12`, greater than 100 µM; as for `N#CC(C#N)SCc1ccccc1`, greater than 100 µM.
For `Cc1cc(N(CCNc2ccnc3cc(Cl)ccc23)Cc2ccc3c(c2)OCO3)nc(N2CCN(C)CC2)n1`, the GI50 is 2.08 µM and the TGI was found to be 5.41 µM.
`Cc1c(C)c2cc3c(=O)ccoc3c(C)c2oc1=O` returned a TGI greater than 100 µM.

A further test deals with A498 renal. Nature of the test: growth of human tumour cells (NCI), 48 h.
In turn, `O=C1c2ccccc2N2OC3(N4CCCC4)CCCC3C12c1ccccc1` (stereo unspecified) gave a TGI greater than 100 µM.
As for `Nc1nc2c(ncn2Cc2ccccc2CCO)c(=O)[nH]1`, the TGI was greater than 100 µM.
On the same count and under the same terms, as for `CCC1(Br)C(=O)NC(=O)N(C2CC(O)C(CO)O2)C1N=[N+]=[N-]` (stereo unspecified), the figure is greater than 100 µM; as for `O=[N+]([O-])c1ccc(N=Nc2c(O)[nH]c3ccc([N+](=O)[O-])cc23)cc1`, greater than 100 µM; as for `CC12CC3(C)CC(C)(C1)CC(N=[N+]=[N-])(C2)C3`, greater than 100 µM.
On the same count and under the same terms, as for `Fc1cccc(Cl)c1C1SCc2nc3ccccc3n21` (stereo unspecified), the figure is greater than 100 µM; as for `COc1cc2nncc(Sc3cnnc4ccccc34)c2cc1OC`, 82 µM; as for `CC(=O)N(CCN)CCN`, greater than 10 µM.
In turn, `Cc1cc(O)c2c(c1)C(O)(c1ccc3c(c1O)C(=O)c1c(O)cc(C)cc1C3(O)C1OC(CO)C(O)C(O)C1O)c1cccc(O)c1C2=O` (stereo unspecified) registered a TGI of 26.5 µM.
Still for that read-out and setting: then `COC(=O)c1nc(NN)[nH]c(=O)c1CCCCCc1c(C(=O)OC)[nH]c(NN)cc1=O`, with greater than 100 µM; and `CC1(C)C(=O)C(O)=CC2C1=CCC1C2(C)C(=O)CC2(C)C(C(C)(O)C(=O)CC(O)C(C)(C)O)C(O)CC12C` (stereo unspecified), with 4.37 µM.
The same measure, in the same setting: as for `CCc1ccccc1NC(=O)C(=O)C(C(=O)c1ccc(OC)cc1)c1ccc(OC)cc1` (stereo unspecified), the figure is greater than 100 µM; as for `C/C(=N/N(C=O)C[n+]1ccccc1)C(CN(CC(C)C)CC(C)C)C(=O)Nc1ccc(C)cc1C` (stereo unspecified), greater than 100 µM.
Turning to `COc1cc(C2c3cc4c(cc3[C@@H](Nc3ccc(N(C)C)cc3)[C@H]3COC(=O)C23)OCO4)cc(OC)c1O` (stereo partly specified), the GI50 is 0.643 µM; the TGI is 3.42 µM and 10.2 µM.

For the origin of these results see PubChem BioAssay (NCI).
